# Data taken from patent US9834823B2, “Primers, assays and methods for detecting an E. coli subtype” (priority 2012, dated 2017).
# Assays:
# Type in all cases: cell-based
# [1] = tested on: Escherichia coli clinical isolates from U.S. veterans; assay: Susceptibility testing (broth microdilution or disk diffusion) at VAMCs with population back-calculations
# [2] = tested on: Escherichia coli clinical isolates (ESBL-positive and ESBL-negative; ST131 subclones); assay: Broth microdilution antimicrobial susceptibility, NorthShore ESBL case-control isolates
# Source text: As reported elsewhere, the 267 E. coli study isolates were collected between 2007 and 2010 as part of a prospective case-control study conducted at NorthShore University HealthSystem (Banerjee, R J et al. “Predictors and molecular epidemiology of community-onset extended-spectrum beta-lactamase (ESBL) Escherichia coli infection in a Midwestern community,” 2013 Infect Control Hosp Epidemiol; in press). Cases were defined as adults with ESBL-producing E. coli cultured from any specimen type. Controls were defined as the 1 or 2 patients with non-ESBL E. coli isolates identified just subsequent to the case isolate, and with the same specimen type and location of collection. Isolates obtained in the outpatient setting or within 48 hours of hospital admission were considered causes of community-associated infection. Further study details are as described (Banerjee, R J et al. “Predictors and molecular epidemiology of community-onset extended-spectrum beta-lactamase (ESBL) Escherichia coli infection in a Midwestern community,” 2013 Infect Control Hosp Epidemiol; in press).
# The resistance score was the total number of agents to which an isolate was resistant. This study was approved by the NorthShore and VA Medical Center institutional review boards.
# [3] = tested on: extraintestinal Escherichia coli isolates; assay: Antimicrobial susceptibility testing (CLSI breakpoints), Olmsted County isolates
smiles,measurement,setting,value
"CC1(C)S[C@@H]2[C@H](NC(=O)[C@H](N)c3ccccc3)C(=O)N2[C@H]1C(=O)O [Ampicillin, ampicillin]","Prevalence of resistance, H30 ST131",[1]; H30 ST131 subclone isolates (H30 subclone vs. others),76
same,"Prevalence of resistance, ST131",[1]; ST131 isolates (ST131 vs. others),77
same,"Prevalence of resistance, Total (%)",[1]; all isolates,46%
same,"Prevalence of resistance, Others (%)",[1]; all non-H30 isolates (H30 subclone vs. others),36%
same,"Prevalence of resistance, Others (%)",[1]; all non-ST131 isolates (ST131 vs. others),34%
same,Estimated fraction due to ST131,[1]; fraction of resistance phenotype due to ST131,.46
same,"Overall prevalence in population, %","[1]; resistance phenotype, back-calculated with 29% FQ resistance",46%
same,Prevalence ratio of resistance,[1]; resistance prevalence among H30 ST131 subclone isolates relative to all other isolates,2.1
same,Prevalence ratio of resistance,[1]; resistance prevalence among ST131 isolates relative to all other isolates,2.3
same,No. resistant (column %),"[2]; ESBL-negative isolates, All N = 167",73 (44)
same,No. resistant (column %),"[2]; ESBL-negative isolates, Non-ST131 N = 145",54 (37)
same,No. resistant (column %),"[2]; ESBL-negative isolates, ST131 N = 22",19 (86)
same,No. resistant (column %),"[2]; ESBL-positive isolates, All N = 100",100 (100)
same,No. resistant (column %),"[2]; ESBL-positive isolates, Non-ST131 N = 51",51 (100)
same,No. resistant (column %),"[2]; ESBL-positive isolates, ST131 N = 49",49 (100)
same,"No. of resistant isolates (column %), H30-Rx (N = 47)",[2]; H30-Rx subclone isolates (N = 47) within the H30 ST131 subclone,46 (98) No. (column %)
same,"No. of resistant isolates (column %), H30, non-Rx (N = 15)",[2]; H30 non-Rx isolates (N = 15) within the H30 ST131 subclone,15 (100) No. (column %)
same,"No. of resistant isolates (column %), H30 (N = 62)",[2]; H30 subclone isolates (N = 62) among 71 E. coli ST131 isolates,61 (98) No. (column %)
same,"No. of resistant isolates (column %), Non-H30 (N = 9)",[2]; non-H30 isolates (N = 9) among 71 E. coli ST131 isolates,7 (78) No. (column %)
same,No. of resistant isolates (column %),"[3]; All isolates, N = 299",156 (52)
same,Resistance prevalence among H30 ST131,"[3]; H30 ST131 subclone, N = 70",81%
same,No. of resistant isolates (column %),"[3]; Other STs, N = 129",3 (41)
same,No. of resistant isolates (column %),"[3]; ST9, N = 32",13 (41)
same,No. of resistant isolates (column %),"[3]; ST69, N = 15",11 (73)
same,No. of resistant isolates (column %),"[3]; ST73, N = 25",10 (40)
same,No. of resistant isolates (column %),"[3]; ST127, N = 18",4 (22)
same,No. of resistant isolates (column %),"[3]; ST131, N = 80",65 (81)
same,Resistance prevalence among non-H30 ST131,"[3]; non-H30 ST131, N = 10",80%
